Article PMC11173897, “Computational Docking as a Tool in Guiding the Drug Design of Rutaecarpine Derivatives as Potential SARS-CoV-2 Inhibitors” (Molecules, 2024)

Tests used:
[1] = test system: wild-type SARS-CoV-2 pseudovirus; test: microbe, parasite or virus in culture; type: cell-based; conditions: for IC50: Severe acute respiratory syndrome-related coronavirus, HEK-293T, n = 5, read-out: IC50, blocking wild-type viral entry
[2] = test system: omicron SARS-CoV-2 pseudovirus; test: microbe, parasite or virus in culture; type: cell-based; conditions: Severe acute respiratory syndrome-related coronavirus, HEK-293T; n = 5; read-out: IC50, entry of the omicron pseudovirus

| Compound | IC50 [1] [µM] | IC50 [2] [µM] | maximal inhibition compared with RU [1] |
| --- | --- | --- | --- |
| O=c1c2ccccc2nc2n1CCc1c-2[nH]c2ccccc12 [RU, rutaecarpine] | 1.34 | 1.01 | – |
| O=c1c2ccc(Nc3ccccc3)cc2nc2n1CCc1c-2[nH]c2ccccc12 [RU-75] | 0.46 | 0.32 | almost double that of RU |
| O=C1c2ccc(Nc3ccccc3)cc2NC2=NCCc3c2n1c1ccccc31 [RU-184] | 0.21 | 0.26 | almost double that of RU |
